The record followed here is patent US20060247156A1, “Use of neuropeptides for ligament, cartilage, and bone healing” (priority 2004, published 2006).

Several values for one entry are separate records, joined by “and”; a condition that tells them apart may be missing. Equal values may be shown once.

One assay deals with healing MCL. Put plainly: Local neuropeptide delivery to normally innervated healing MCL: mechanical testing, histomorphology. In kind it is in vivo, rat. Particulars: for histomorphology (H&E) of healing MCL: Example 7, two weeks of healing; for failure force / ultimate stress: Example 7: normally innervated rats, bilateral MCL rupture, mini-osmotic pump (SP 75, CGRP 10, NPY 65, VIP 100 pg/100 μl). On the procedure: Animal Model and Surgery: Forty female Wistar rats (200-250 g) were divided into five groups.
All rats underwent bilateral MCL rupture. Neuropeptides were then delivered ruptured MCLs unilaterally. Neuropeptide infused mini-osmotic pumps (Alzet Corp.) were implanted subcutaneously into the back of each rat. A small catheter running from the pump was run to an intramuscular space above the MCL and was secured.
Mechanical Testing: Mechanical testing was performed as described in Chapter 2. Briefly, animal hind limbs from all groups (n=5 for all groups) were disarticulated at the hip joint and stored at −80° C. until testing. On the day of testing, MCLs including intact femoral and tibial bone sections were excised for ex vivo testing. Ligament thickness and width was measured optically, and MCL area was estimated with elliptical geometry. For strain measurements, optical markers were placed onto the ligament tissue near the insertion sites. A small preload of 0.1N was applied to the ligaments in order to obtain a uniform starting point. The ligaments were then preconditioned to 1% strain for 10 cycles. After preconditioning, ligaments were pulled to failure at a rate of 10% per second.
Tissue displacement was obtained using video dimensional analysis using equations (1) and (2) supra. The mechanical properties that were examined in this study were maximum force, ultimate stress, strain at failure, elastic modulus, and area. Statistical analysis was performed using paired ttests to compare each treated MCL to its contralateral control (alpha=0.05).
Ligaments were immediately fixed in formalin fixative for three days at room temperature. Specimens were embedded in paraffin, sectioned (6 μm), mounted on slides, and stained with hematoxylin and eosin (H&E).

Assay [1] has as its system bovine articular chondrocytes. Kind of assay: Bovine chondrocytes proliferation assay (CellTiter 96 AQueous One). Format: cell-based. The conditions noted are these: CGRP 100 pg/ml, NPY 50 ng/ml, SP 500 pg/ml, VIP 1 ng/ml. Here is the method: (§1) Cartilage chunks were then digested at 37° C. in DMEM containing 0.05% hyaluronidase for 30 minutes, followed by 0.05% collagenase digestion overnight. The digests were filtered through 40-micron nylon mesh and centrifuged at 600×g for 20 minutes. The cell pellets were then resuspended in DMEM and counted using a hemacytometer.
(§2) Cells were plated at 1×10^5 cells/well in 12-well plates (n=9) for proteoglycan assays and at 2×10^4 cells/well in 96-well plates (n=16) for proliferation assays. The culture volumes were 1 ml/well in 12-well plates and 100 μl/well in 96-well plates.
(§3) The plates were incubated at 37° C. in a humidified CO2 incubator for 3 days to allow the cells to recover from the harvesting procedure.
(§4) On Day 3 of treatment, 20 μl of CellTiter 96® AQueous One Solution Cell Proliferation Assay (Promega Corporation, Madison, Wis.) was added to each well of the 96-well cultures for 60 minutes, and cells in the 12-well plates were digested with 0.125 units of papain/well overnight. After the 60-minute incubation, the absorbance of the color generated by the cells in the 96-well plates was measured at wavelength 490 nm.

The test system of assay [2] is Bovine nucleus pulposus cells. Put plainly: Bovine nucleus pulposus (intervertebral disc) cell proliferation. Particulars: day 1, day 2, day 3. In kind it is cell-based. On the procedure:
Bovine calf spines and femoral condyles were obtained from a slaughterhouse and freshly transported to the laboratory. Nucleus pulposus tissue was carefully dissected, avoiding annular and endplate cartilage tissues, from each disc. Articular cartilage from femoral condyles was dissected in the same manner. […] Cells were harvested by overnight digestion with hyaluronidase and collagenase, followed by filtration. Cells were plated at a density of 1×10^5 cells/ml and incubated at 37° C. in 5% CO2 and 95% air in the presence of each neuropeptide or media only (control). At various time points in growth, cells were collected for proliferation and glycosaminoglycan (GAG) production assays. Varying concentrations of NPs were examined.
Well established colorimetric and luminescent assays (CellTiter 96® AQueous Non-radioactive Cell Proliferation and CellTiter-Glo® Luminescent Cell Viability Assays, Promega, Madison, Wis.) were used to quantify the effect of each NP on cell proliferation. In addition, corresponding cell cultures during growth were digested with papain to release glycosaminoglycans (GAGs). Dimethyl methylene blue (DMMB) colorimetric assays were used to quantify the amount of GAGs in each culture.
Multiple samples for test and control groups were performed simultaneously. Statistical analyses using one way analysis of variance (ANOVA) with large degrees of freedom (n=12 for GAG assays; n=24 for proliferation assays) were performed to establish the significance of differences between test groups and control groups for each day of growth in culture.
The effect of neuropeptides on intervertebral disc cell proliferation was examined in order to elucidate further the pathophysiology of degenerative disc disease. Bovine nucleus pulposus cells were incubated with the same neuropeptides.

Assay [3] has as its system bovine articular chondrocytes. Put plainly: Bovine chondrocytes glycosaminoglycan assay (DMMB). Format: cell-based. The conditions noted are these: Day 3 of treatment, individual wells. Here is the method:
as §1, §2, §3, §4
Following papain digestion of the cultures in 12-well plates, the amount of glycosaminoglycan (representative of proteoglycans) in each well was measured using the dimethylmethylene blue (DMMB) dye-binding assay. The results were statistically analyzed and plotted.

With vasoactive intestinal peptide [VIP], the “histomorphology (H&E) of healing MCL” value with healing MCL is listed as “greatly improved tissue alignment”. In the assay with healing MCL (two weeks of healing), this substance yielded a failure force of 10.2±3.0 N and a ultimate stress of 5.1±1.6 MPa. For the same substance, in assay [1], the “proliferation of articular chondrocytes compared to controls (in words)” value is listed as “stimulate proliferation”. Further, in assay [2] (VIP 100 ng/ml), the disc cell viability entry is given as “negative influence”. The “Glycosaminoglycan Assay” value in assay [3] (VIP 1 ng/ml) is 7.419 μg/dish and 5.966 μg/dish and 6.874 μg/dish and 6.42 μg/dish and 6.965 μg/dish and 3.785 μg/dish and 6.147 μg/dish and 6.511 μg/dish and 8.328 μg/dish.

Turning to Substance P [SP], in the assay on healing MCL, the “histomorphology (H&E) of healing MCL” value is listed as “greatly improved tissue alignment”. Besides, in the assay on healing MCL (Example 7: SP, two weeks of healing), the “healed MCL strength relative to intact MCL strength” value is 60%. In addition, in the assay with healing MCL (two weeks of healing), the failure force result is listed as “no change” and the ultimate stress amounted to 13.4±8.9 MPa. The “proliferation of articular chondrocytes compared to controls (in words)” value in assay [1] was “stimulate proliferation”. Besides, the “disc cell proliferation compared to controls” value in assay [2] (CGRP 10 ng/ml, NPY (mcg/ml, SP 5 mcg/ml)) was “stimulate disc cell proliferation”. In assay [3] (SP 500 pg/ml), the “Glycosaminoglycan Assay” value is 8.6 μg/dish and 9.1 μg/dish and 8.373 μg/dish and 7.011 μg/dish and 6.556 μg/dish and 7.192 μg/dish and 7.238 μg/dish and 7.283 μg/dish and 8.01 μg/dish.
